Measurements reported in patent US8952024B2, “Herbicidal pyrimidone derivatives” (E I du Pont de Nemours and Company, priority 2009, dated 2015).

Tests used:
Assay in all cases: Test B pre-/postemergence plant response
Format in all cases: in vivo
[1] = tested on: Italian ryegrass (Lolium multiflorum); conditions: Postemergence
Procedure, shortened: (§1)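 Pre-em in loam/sand; post-em at 1–4 leaf (2–18 cm) in peat mix. Solvent + surfactant formulation. Greenhouse 13–15 d; visual % control vs untreated, 0–100.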

[2] = tested on: bermudagrass (Cynodon dactylon); conditions: for Plant response rating, Bermudagrass: Postemergence
Procedure, shortened: as §1

[3] = tested on: blackgrass (Alopecurus myosuroides); conditions: for Plant response rating, Blackgrass: Postemergence
Procedure, shortened: as §1

corn (Zea mays) = conditions: Postemergence
Procedure, shortened: as §1

[4] = tested on: downy bromegrass (Bromus tectorum); conditions: for Plant response rating, Bromegrass, Downy: Postemergence
Procedure, shortened: as §1

[5] = tested on: giant foxtail (Setaria faberii); conditions: Postemergence
Procedure, shortened: as §1

[6] = tested on: goosegrass (Eleusine indica); conditions: Postemergence
Procedure, shortened: as §1

[7] = tested on: green foxtail (Setaria viridis); conditions: Postemergence
Procedure, shortened: as §1

[8] = tested on: johnsongrass (Sorghum halepense); conditions: Postemergence
Procedure, shortened: as §1

kochia (Kochia scoparia) = conditions: Postemergence
Procedure, shortened: as §1

[9] = tested on: lambsquarters (Chenopodium album); conditions: Postemergence
Procedure, shortened: as §1

[10] = tested on: large crabgrass (Digitaria sanguinalis); conditions: Postemergence
Procedure, shortened: as §1

[11] = tested on: ragweed (common ragweed, Ambrosia elatior); conditions: Postemergence
Procedure, shortened: as §1

[12] = tested on: velvetleaf (Abutilon theophrasti); conditions: Postemergence
Procedure, shortened: as §1

[13] = tested on: woolly cupgrass (Eriochloa villosa); conditions: Postemergence
Procedure, shortened: as §1

[14] = tested on: yellow nutsedge (Cyperus esculentus); conditions: Postemergence
Procedure, shortened: as §1

[15] = 31 g ai/ha, 0 to 100 scale (0 no effect, 100 complete control)
[16] = 125 g ai/ha, scale 0 to 100 (0 no effect, 100 complete control)
[17] = 62 g ai/ha, postemergence, 0 is no effect, 100 is complete control, 13 to 15 days

O=C1CCCC(O)=C1C(=O)c1cnc(-c2ccccc2)n(C2CC[S+]([O-])CC2)c1=O (mixture of isomers) [Compound 169, 5-[(2-hydroxy-6-oxo-1-cyclohexen-1-yl)carbonyl]-2-phenyl-3-(trans/cis-tetrahydro-1-oxido-2H-thiopyran-4-yl)-4(3H)-pyrimidinone]
75: Bermudagrass plant response rating (0 to 100 scale) [2, 17] | Plant response rating, Foxtail, Giant ([5]; 16 g ai/ha, 0 to 100 scale) | Plant response rating, Crabgrass, Large ([10]; 16 g ai/ha, 0 to 100 scale) | Plant response rating, Velvetleaf ([12]; 16 g ai/ha, 0 to 100 scale) | Plant response rating, Cupgrass, Woolly ([13]; 16 g ai/ha, 0 to 100 scale)
45: Plant response rating, Corn (corn (Zea mays); [15]) | Plant response rating, Foxtail, Green ([7]; 16 g ai/ha, 0 to 100 scale)
90: Plant response rating, Bromegrass, Downy [4, 16]
100: Plant response rating, Bermudagrass [2, 16] | Plant response rating, Foxtail, Giant [5, 16] | Plant response rating, Goosegrass [6, 16] | Plant response rating, Kochia (kochia (Kochia scoparia); 16 g ai/ha, 0 to 100 scale) | Plant response rating, Kochia (kochia (Kochia scoparia); [15]) | Plant response rating, Kochia (kochia (Kochia scoparia); [16]) | Plant response rating, Lambsquarters [9, 15] | Plant response rating, Lambsquarters [9, 16] | Plant response rating, Crabgrass, Large [10, 16] | Plant response rating, Ragweed [11, 15] | Plant response rating, Ragweed [11, 16] | Plant response rating, Velvetleaf [12, 15] | Plant response rating, Velvetleaf [12, 16] | Plant response rating, Cupgrass, Woolly [13, 16]
70: Plant response rating, Bermudagrass ([2]; 16 g ai/ha, 0 to 100 scale) | Plant response rating, Bermudagrass [2, 15]
0: Plant response rating, Ryegrass, Italian ([1]; 16 g ai/ha, 0 to 100 scale) | Plant response rating, Ryegrass, Italian [1, 15] | Plant response rating, Blackgrass ([3]; 16 g ai/ha, 0 to 100 scale) | Plant response rating, Bromegrass, Downy ([4]; 16 g ai/ha, 0 to 100 scale) | Plant response rating, Nutsedge, Yellow ([14]; 16 g ai/ha, 0 to 100 scale) | Plant response rating, Nutsedge, Yellow [14, 15]
85: Plant response rating, Crabgrass, Large [10, 15] | Plant response rating, Cupgrass, Woolly [13, 15]
5: Blackgrass plant response rating (0 to 100 scale) [3, 17] | Plant response rating, Blackgrass [3, 15]
98: Plant response rating, Ragweed ([11]; 16 g ai/ha, 0 to 100 scale)
65: Plant response rating, Johnsongrass [8, 16]
80: Plant response rating, Goosegrass ([6]; 16 g ai/ha, 0 to 100 scale)
20: Plant response rating, Corn (corn (Zea mays); 16 g ai/ha, 0 to 100 scale)
95: Plant response rating, Foxtail, Giant [5, 15] | Plant response rating, Goosegrass [6, 15] | Plant response rating, Foxtail, Green [7, 16] | Plant response rating, Lambsquarters ([9]; 16 g ai/ha, 0 to 100 scale)
10: Plant response rating, Ryegrass, Italian [1, 16] | Plant response rating, Blackgrass [3, 16] | Plant response rating, Bromegrass, Downy [4, 15]
55: Plant response rating, Corn (corn (Zea mays); [16]) | Plant response rating, Nutsedge, Yellow [14, 16]
40: Bromegrass, Downy plant response rating (0 to 100 scale) [4, 17] | Plant response rating, Johnsongrass ([8]; 16 g ai/ha, 0 to 100 scale)
60: Plant response rating, Foxtail, Green [7, 15] | Plant response rating, Johnsongrass [8, 15]
